According to patent EP0504335B1, “A FIBRONECTIN BINDING PEPTIDE” (priority 1990, dated 1997):
pIC50: −log10 of the molar value. Peptide text beside a SMILES is read from it.

Experiments:
Human fibronectin = assay type: binding; settings: for pIC50: read-out: concentration eliciting a 50% inhibition of fibronectin binding
Treponema palladium = settings: Thomas et al., 1985b; cited from earlier work
spirochetes = settings: cited from earlier work
Trypanosoma cruzi = settings: Ouaissi et al., 1986; cited from earlier work

## CC(C)C[C@H](NC(=O)[C@@H](NC(=O)[C@H](CC(=O)O)NC(=O)[C@H](CCC(=O)O)NC(=O)[C@H](CCC(=O)O)NC(=O)[C@H](Cc1ccccc1)NC(=O)[C@H](CC(=O)O)NC(=O)[C@@H](NC(=O)[C@H](CO)NC(=O)[C@H](CC(N)=O)NC(=O)[C@H](Cc1c[nH]cn1)NC(=O)CNC(=O)CNC(=O)[C@H](Cc1ccccc1)NC(=O)[C@@H](N)CCC(N)=O)C(C)C)[C@@H](C)O)C(=O)N1CCC[C@H]1C(=O)N[C@@H](CCCCN)C(=O)O [Peptide S20-36] (H-QFGGHNSVDFEEDTLPK-OH)
Human fibronectin
  pIC50: 3.70

## RGDS
Treponema palladium
  binding of fibronectin to Treponema palladium, in words: prevented
spirochetes
  attachment of spirochetes to cultured human cells, in words: blocked
Trypanosoma cruzi
  binding of fibronectin to Trypanosoma cruzi, in words: prevented

## CC(C)C[C@H](NC(=O)[C@@H](NC(=O)[C@H](CC(=O)O)NC(=O)[C@H](CCC(=O)O)NC(=O)[C@H](CCC(=O)O)NC(=O)[C@H](Cc1ccccc1)NC(=O)[C@H](CC(=O)O)NC(=O)[C@@H](NC(=O)[C@H](CO)NC(=O)[C@H](CC(N)=O)NC(=O)[C@H](Cc1c[nH]cn1)NC(=O)CNC(=O)CNC(=O)[C@@H](N)Cc1ccccc1)C(C)C)[C@@H](C)O)C(=O)N1CCC[C@H]1C(=O)N[C@@H](CCCCN)C(=O)O [Peptide S21-36] (H-FGGHNSVDFEEDTLPK-OH)
Human fibronectin
  fold less effective than S20-36: about 10 fold

## CC(C)C[C@H](NC(=O)[C@@H](NC(=O)[C@H](CC(=O)O)NC(=O)[C@H](CCC(=O)O)NC(=O)[C@H](CCC(=O)O)NC(=O)[C@H](Cc1ccccc1)NC(=O)[C@H](CC(=O)O)NC(=O)[C@@H](NC(=O)[C@H](CO)NC(=O)[C@H](CC(N)=O)NC(=O)[C@H](Cc1c[nH]cn1)NC(=O)CNC(=O)CNC(=O)[C@H](Cc1ccccc1)NC(=O)[C@H](CCC(N)=O)NC(=O)[C@H](Cc1ccc(O)cc1)NC(=O)[C@H](CO)NC(=O)[C@@H]1CCCN1C(=O)[C@@H](N)CCCCN)C(C)C)[C@@H](C)O)C(=O)N1CCC[C@H]1C(=O)N[C@@H](CCCCN)C(=O)O [Peptide S16-36] (H-KPSYQFGGHNSVDFEEDTLPK-OH)
Human fibronectin
  pIC50: 5.00

## CC(C)[C@H](NC(=O)[C@H](CO)NC(=O)[C@H](CC(N)=O)NC(=O)[C@H](Cc1c[nH]cn1)NC(=O)CNC(=O)CNC(=O)[C@H](Cc1ccccc1)NC(=O)[C@H](CCC(N)=O)NC(=O)[C@H](Cc1ccc(O)cc1)NC(=O)[C@H](CO)NC(=O)[C@@H]1CCCN1)C(=O)N[C@@H](CC(=O)O)C(=O)N[C@@H](Cc1ccccc1)C(=O)N[C@@H](CCC(=O)O)C(=O)N[C@@H](CCC(=O)O)C(=O)N[C@@H](CC(=O)O)C(=O)N[C@H](C(=O)O)[C@@H](C)O [Peptide S17-33] (H-PSYQFGGHNSVDFEEDT-OH)
Human fibronectin
  inhibitory activity (inhibition of ^125I-HFN binding to S. aureus 8325-4), in words: dramatic recovery of activity
  pIC50: 4.00

## CC[C@H](C)[C@H](NC(=O)[C@H](CCC(=O)O)NC(=O)[C@@H](NC(=O)[C@H](Cc1c[nH]cn1)NC(=O)[C@H](CCCCN)NC(=O)[C@H](CC(N)=O)NC(=O)[C@@H](N)Cc1ccccc1)[C@@H](C)O)C(=O)N[C@H](C(=O)N[C@@H](CCC(=O)O)C(=O)N[C@@H](CCC(=O)O)C(=O)N[C@@H](CC(=O)O)C(=O)N[C@H](C(=O)N[C@@H](CC(N)=O)C(=O)N[C@@H](CCCCN)C(=O)N[C@@H](CC(=O)O)C(=O)N[C@@H](CCCCN)C(=O)N1CCC[C@H]1C(=O)N[C@@H](CO)C(=O)N[C@@H](Cc1ccc(O)cc1)C(=O)N[C@@H](CCC(N)=O)C(=O)N[C@@H](Cc1ccccc1)C(=O)NCC(=O)NCC(=O)N[C@@H](Cc1c[nH]cn1)C(=O)N[C@@H](CC(N)=O)C(=O)N[C@@H](CO)C(=O)N[C@H](C(=O)N[C@@H](CC(=O)O)C(=O)N[C@@H](Cc1ccccc1)C(=O)N[C@@H](CCC(=O)O)C(=O)N[C@@H](CCC(=O)O)C(=O)N[C@@H](CC(=O)O)C(=O)N[C@H](C(=O)N[C@@H](CC(C)C)C(=O)N1CCC[C@H]1C(=O)N[C@@H](CCCCN)C(=O)N[C@H](C(=O)O)C(C)C)[C@@H](C)O)C(C)C)[C@@H](C)O)[C@@H](C)CC [Peptide D3] (H-FNKHTEIIEEDTNKDKPSYQFGGHNSVDFEEDTLPKV-OH)
Human fibronectin
  inhibitory activity (inhibition of ^125I-HFN binding to S. aureus 8325-4), in words: effective inhibitors
